In PMC5601486, “Identification of 4-phenylquinolin-2(1H)-one as a specific allosteric inhibitor of Akt” (Scientific Reports, 2017):

Experiments:
Assay in all cases: KINOMEscan
Conditions in all cases: 50000 nM
[1] = system: JAK1(JH2domain-pseudokinase)
Procedure: KINOMEscan™ selectivity screen
(§1) The assay was perfor med at DiscoveRx Corporation according the methods published previously5. Briefly, Kinase-tagged T7 phage strains were grown in parallel in an E. coli host derived from the BL21 strain. E. coli were grown to log-phase and infected with T7 phage from a frozen stock and incubated with shaking at 32°C until lysis (90-150 minutes). The kinases were produced in HEK-293 cells and subsequently tagged with DNA for qPCR detection. Streptavidin-coated magnetic beads were treated with biotinylated small molecule ligands to generate affinity resins for kinase
(§2) inhibitor or DMSO control was performed in polypropylene 384-well plates for 1 hr at room temperature. After wash with PBS buffer containing 0.05% Tween 20, the beads were incubated in elution buffer (PBS containing 0.05 % Tween 20 and 0.5 μM non-biotinylated affinity ligand) for 30 minutes at room temperature. The kinase concentration in the eluates was measured by qPCR.

AURKB = system: AURKB
Procedure: KINOMEscan™ selectivity screen
as §1, §2

SGK2 = system: SGK2
Procedure: KINOMEscan™ selectivity screen
(§3) Briefly, Kinase-tagged T7 phage strains were grown in parallel in an E. coli host derived from the BL21 strain. E. coli were grown to log-phase and infected with T7 phage from a frozen stock and incubated with shaking at 32°C until lysis (90-150 minutes). The kinases were produced in HEK-293 cells and subsequently tagged with DNA for qPCR detection. Streptavidin-coated magnetic beads were treated with biotinylated small molecule ligands to generate affinity resins for kinase
as §2

CHEK1 = system: CHEK1
Procedure: KINOMEscan™ selectivity screen
as §1, §2

TAOK2 = system: TAOK2
Procedure: KINOMEscan™ selectivity screen
(§4) Briefly, Kinase-tagged T7 phage strains were grown in parallel in an E. coli host derived from the BL21 strain. E. coli were grown to log-phase and infected with T7 phage from a frozen stock and incubated with shaking at 32°C until lysis (90-150 minutes). The kinases were produced in HEK-293 cells and subsequently tagged with DNA for qPCR detection.
(§5) After wash with PBS buffer containing 0.05% Tween 20, the beads were incubated in elution buffer (PBS containing 0.05 % Tween 20 and 0.5 μM non-biotinylated affinity ligand) for 30 minutes at room temperature. The kinase concentration in the eluates was measured by qPCR.

DAPK2 = system: DAPK2
Procedure: KINOMEscan™ selectivity screen
as §1, §2

IRAK4 = system: IRAK4
Procedure: KINOMEscan™ selectivity screen
as §3, §2

KIT(A829P) = system: KIT(A829P)
Procedure: KINOMEscan™ selectivity screen
as §1, §2

ZAP70 = system: ZAP70
Procedure: KINOMEscan™ selectivity screen
as §3, §2

ROCK2 = system: ROCK2
Procedure: KINOMEscan™ selectivity screen
as §1, §2

LRRK2(G2019S) = system: LRRK2(G2019S)
Procedure: KINOMEscan™ selectivity screen
as §1, §2

[2] = system: RPS6KA5(Kin.Dom.2-C-terminal)
Procedure: KINOMEscan™ selectivity screen
as §4, §5

GCN2(Kin.Dom.2,S808G) = system: GCN2(Kin.Dom.2,S808G)
Procedure: KINOMEscan™ selectivity screen
as §1, §2

CDK4 = system: CDK4
Procedure: KINOMEscan™ selectivity screen
as §3, §2

SgK110 = system: SgK110
Procedure: KINOMEscan™ selectivity screen
as §1, §2

CDK8 = system: CDK8
Procedure: KINOMEscan™ selectivity screen
as §1, §2

INSR = system: INSR
Procedure: KINOMEscan™ selectivity screen
(§6) The assay was perfor med at DiscoveRx Corporation according the methods published previously5. […] The kinases were produced in HEK-293 cells and subsequently tagged with DNA for qPCR detection. Streptavidin-coated magnetic beads were treated with biotinylated small molecule ligands to generate affinity resins for kinase
as §2

RIPK4 = system: RIPK4
Procedure: KINOMEscan™ selectivity screen
as §1, §2

PFTK1 = system: PFTK1
Procedure: KINOMEscan™ selectivity screen
as §3, §2

AXL = system: AXL
Procedure: KINOMEscan™ selectivity screen
as §1, §2

BMX = system: BMX
Procedure: KINOMEscan™ selectivity screen
as §3, §2

BTK = system: BTK
Procedure: KINOMEscan™ selectivity screen
as §1, §2

MAP4K3 = system: MAP4K3
Procedure: KINOMEscan™ selectivity screen
as §1, §2

CDK4-cyclinD3 = system: CDK4-cyclinD3
Procedure: KINOMEscan™ selectivity screen
as §3, §2

STK36 = system: STK36
Procedure: KINOMEscan™ selectivity screen
as §1, §2

SRC = system: SRC
Procedure: KINOMEscan™ selectivity screen
as §1, §2

[3] = system: ABL1(Q252H)-phosphorylated
Procedure: KINOMEscan™ selectivity screen
as §1, §2

ERBB2 = system: ERBB2
Procedure: KINOMEscan™ selectivity screen
as §1, §2

MST2 = system: MST2
Procedure: KINOMEscan™ selectivity screen
as §6, §2

SRPK3 = system: SRPK3
Procedure: KINOMEscan™ selectivity screen
as §1, §2

PRKD3 = system: PRKD3
Procedure: KINOMEscan™ selectivity screen
as §1, §2

MAPKAPK5 = system: MAPKAPK5
Procedure: KINOMEscan™ selectivity screen
as §1, §2

MAP4K2 = system: MAP4K2
Procedure: KINOMEscan™ selectivity screen
as §1, §2

ULK1 = system: ULK1
Procedure: KINOMEscan™ selectivity screen
as §1, §2

KIT(D816V) = system: KIT(D816V)
Procedure: KINOMEscan™ selectivity screen
as §1, §2

CDK4-cyclinD1 = system: CDK4-cyclinD1
Procedure: KINOMEscan™ selectivity screen
as §1, §2

DLK = system: DLK
Procedure: KINOMEscan™ selectivity screen
as §1, §2

MARK4 = system: MARK4
Procedure: KINOMEscan™ selectivity screen
as §1, §2

FGFR3 = system: FGFR3
Procedure: KINOMEscan™ selectivity screen
as §1, §2

GSK3B = system: GSK3B
Procedure: KINOMEscan™ selectivity screen
as §3, §2

ERN1 = system: ERN1
Procedure: KINOMEscan™ selectivity screen
as §3, §2

BMPR1B = system: BMPR1B
Procedure: KINOMEscan™ selectivity screen
as §1, §2

NEK11 = system: NEK11
Procedure: KINOMEscan™ selectivity screen
as §3, §2

TRKC = system: TRKC
Procedure: KINOMEscan™ selectivity screen
as §3, §2

PRKCH = system: PRKCH
Procedure: KINOMEscan™ selectivity screen
The kinases were produced in HEK-293 cells and subsequently tagged with DNA for qPCR detection. Streptavidin-coated magnetic beads were treated with biotinylated small molecule ligands to generate affinity resins for kinase
as §2

KIT(D816H) = system: KIT(D816H)
Procedure: as §3, §2

EGFR(L858R,T790M) = system: EGFR(L858R,T790M)
Procedure: KINOMEscan™ selectivity screen
as §1, §2

SRMS = system: SRMS
Procedure: as §3, §2

PAK6 = system: PAK6
Procedure: KINOMEscan™ selectivity screen
as §3, §2

PRKCI = system: PRKCI
Procedure: KINOMEscan™ selectivity screen
as §1, §2

RIOK2 = system: RIOK2
Procedure: KINOMEscan™ selectivity screen
as §1, §2

IKK-beta = system: IKK-beta
Procedure: KINOMEscan™ selectivity screen
as §1, §2

CLK4 = system: CLK4
Procedure: KINOMEscan™ selectivity screen
as §1, §2

CAMK1G = system: CAMK1G
Procedure: KINOMEscan™ selectivity screen
as §3, §2

Q: Which results are given for `Oc1cc(-c2ccccc2)c2ccccc2n1` [G7, 4-phenylquinolin-2(1H)-one]?
A: Percent Control [1]: 5.5%; Percent Control (AURKB): 91%; Percent Control (SGK2): 62%; Percent Control (CHEK1): 85%; Percent Control (TAOK2): 93%; Percent Control (DAPK2): 83%; Percent Control (IRAK4): 68%; Percent Control (KIT(A829P)): 78%; Percent Control (ZAP70): 100%; Percent Control (ROCK2): 81%; Percent Control (LRRK2(G2019S)): 63%; Percent Control [2]: 93%; Percent Control (GCN2(Kin.Dom.2,S808G)): 99%; Percent Control (CDK4): 100%; Percent Control (SgK110): 100%; Percent Control (CDK8): 85%; Percent Control (INSR): 56%; Percent Control (RIPK4): 80%; Percent Control (PFTK1): 94%; Percent Control (AXL): 42%; Percent Control (BMX): 86%; Percent Control (BTK): 50%; Percent Control (MAP4K3): 89%; Percent Control (CDK4-cyclinD3): 71%; Percent Control (STK36): 95%; Percent Control (SRC): 65%; Percent Control [3]: 33%; Percent Control (ERBB2): 98%; Percent Control (MST2): 76%; Percent Control (SRPK3): 100%; Percent Control (PRKD3): 89%; Percent Control (MAPKAPK5): 81%; Percent Control (MAP4K2): 100%; Percent Control (ULK1): 74%; Percent Control (KIT(D816V)): 58%; Percent Control (CDK4-cyclinD1): 95%; Percent Control (DLK): 78%; Percent Control (MARK4): 88%; Percent Control (FGFR3): 83%; Percent Control (GSK3B): 68%; Percent Control (ERN1): 69%; Percent Control (BMPR1B): 83%; Percent Control (NEK11): 90%; Percent Control (TRKC): 61%; Percent Control (PRKCH): 75%; Percent Control (KIT(D816H)): 84%; Percent Control (EGFR(L858R,T790M)): 90%; Percent Control (SRMS): 88%; Percent Control (PAK6): 87%; Percent Control (PRKCI): 98%; Percent Control (RIOK2): 83%; Percent Control (IKK-beta): 83%; Percent Control (CLK4): 80%; Percent Control (CAMK1G): 77%
